Columns and labels:
Mouse urotensin (mUR2) = molecular target: T1, Mouse urotensin (mUR2) (Mus musculus, UniProt Q8VIH9); test: Radioligand binding, mouse urotensin mUR2 membranes, FlashPlate, [125I]-Urotensin II; conditions: compound at 10 μM, [125I]-Urotensin II; for A11: inhibition of radioligand binding: mouse mUR2 membranes
T1 construct: purchased Perkin Elmer Biosignal
T1 sequence (Q8VIH9 1-385): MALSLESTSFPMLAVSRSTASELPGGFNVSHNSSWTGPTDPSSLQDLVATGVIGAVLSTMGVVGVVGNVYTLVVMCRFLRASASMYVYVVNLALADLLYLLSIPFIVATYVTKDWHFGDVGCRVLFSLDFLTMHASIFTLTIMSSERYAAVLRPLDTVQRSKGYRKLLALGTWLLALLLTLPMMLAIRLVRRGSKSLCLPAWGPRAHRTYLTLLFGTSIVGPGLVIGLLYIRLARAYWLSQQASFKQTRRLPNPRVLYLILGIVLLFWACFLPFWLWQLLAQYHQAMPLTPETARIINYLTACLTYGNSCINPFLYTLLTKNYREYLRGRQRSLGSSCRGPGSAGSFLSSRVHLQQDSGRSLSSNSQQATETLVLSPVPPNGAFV
Method in brief: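 Cloned mouse urotensin (mUR2) receptor membranes from Perkin Elmer Biosignal were immobilized in FlashPlate microplates using a proprietary coating. Each well got 19.5 μl buffer, then 0.5 μl of DMSO, reference ligand, or compound. Adding 5 μl of [125I]-Urotensin II, diluted to 5× final concentration in binding buffer, started binding. Plates were sealed with TopSeal-A and incubated 1 hour at room temperature in the dark. Wells were counted for 30 seconds each on a TopCount after a 60-second delay, and percentage inhibition was calculated.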

Human μ-opioid (MOP) = molecular target: T2, Human μ-opioid (MOP) (Homo sapiens, UniProt P35372); test: Radioligand binding, human μ-opioid (MOP) membranes, FlashPlate, [3H]-Naloxone; conditions: compound at 10 μM, [3H]-Naloxone; for A7: inhibition of radioligand binding: human MOP membranes
T2 construct: purchased Perkin Elmer Biosignal
Method in brief: (§1)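 Cloned human receptor membranes were coated onto FlashPlate wells and incubated with radioligand and compound (added from a 0.5 mM DMSO daughter plate) for 1 hour at room temperature in the dark. Scintillation counting gave percent inhibition, with DMSO defining total and reference ligand defining non-specific binding.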

Human δ-opioid (DOP) = molecular target: T3, Human δ-opioid (DOP) (Homo sapiens, UniProt P41143); test: Radioligand binding, human δ-opioid (DOP) membranes, FlashPlate, [3H]-Bremazocine; conditions: compound at 10 μM, [3H]-Bremazocine; for A1: inhibition of radioligand binding: human DOP membranes
T3 construct: purchased Perkin Elmer Biosignal
Method in brief: as §1

Human melanocortin (MC5) = molecular target: T4, Human melanocortin (MC5) (Homo sapiens, UniProt P33032); test: Radioligand binding, human melanocortin MC5 membranes, FlashPlate, [125I]-NDP-αMSH; conditions: compound at 10 μM, [125I]-NDP-αMSH; for A5: inhibition of radioligand binding: human MC5 membranes
T4 construct: purchased Perkin Elmer Biosignal
Method in brief: as §1

Human neurokinin (NK1) = molecular target: T5, Human neurokinin (NK1) (Homo sapiens, UniProt P25103); test: Radioligand binding, human neurokinin NK1 membranes, filtration, [125I]-Substance P; conditions: compound at 10 μM, [125I]-Substance P; for A8: inhibition of radioligand binding: human NK1 membranes
T5 construct: purchased Perkin Elmer Biosignal
Method in brief: (§2)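 Filtration binding on cloned human receptor membranes (1 Unit/well), [125I]-Substance P for NK1 and [3H]-Diprenorphine for KOP, 1 h at room temperature. Filters PEI-presoaked, washed with cold 50 mM Tris-HCl pH 7.4, counted by scintillation; percent inhibition calculated, reference ligand defining non-specific binding.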

[1] = molecular target: T6, Human neuropeptide Y (NPY-Y1) (Homo sapiens, UniProt P25929); test: Radioligand binding, human neuropeptide Y NPY-Y1 membranes, FlashPlate, [125I]-PYY; conditions: compound at 10 μM, [125I]-PYY; for A9: inhibition of radioligand binding: human NPY-Y1 membranes
T6 construct: purchased Perkin Elmer Biosignal
T6 sequence (P25929 1-384): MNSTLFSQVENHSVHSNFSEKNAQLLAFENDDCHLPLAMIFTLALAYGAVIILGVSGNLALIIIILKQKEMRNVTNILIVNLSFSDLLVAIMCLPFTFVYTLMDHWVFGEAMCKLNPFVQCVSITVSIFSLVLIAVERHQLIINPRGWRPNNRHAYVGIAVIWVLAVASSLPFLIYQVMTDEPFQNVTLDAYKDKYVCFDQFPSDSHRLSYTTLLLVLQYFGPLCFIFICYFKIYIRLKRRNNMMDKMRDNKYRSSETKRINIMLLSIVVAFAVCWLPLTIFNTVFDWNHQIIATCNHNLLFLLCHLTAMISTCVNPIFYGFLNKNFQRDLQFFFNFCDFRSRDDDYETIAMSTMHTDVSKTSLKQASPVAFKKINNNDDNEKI
Method in brief: as §1

Human Melanocortin (MC4) = molecular target: T7, Human Melanocortin (MC4) (Homo sapiens, UniProt P32245); test: Radioligand binding, human melanocortin MC4 membranes, FlashPlate, [125I]-NDP-αMSH; conditions: compound at 10 μM, [125I]-NDP-αMSH; for A4: inhibition of radioligand binding: human MC4 membranes
T7 construct: purchased Perkin Elmer Biosignal
Method in brief: as §1

Human opioid (ORL1) = molecular target: T8, Human opioid (ORL1) (Homo sapiens, UniProt P41146); test: Radioligand binding, human opioid ORL1 membranes, FlashPlate, [125I]-Nociceptin; conditions: compound at 10 μM, [125I]-Nociceptin; for A10: inhibition of radioligand binding: human ORL1 membranes
T8 construct: purchased Perkin Elmer Biosignal
Method in brief: as §1

[2] = molecular target: T9, Human melanin-concentrating hormone (MCH1) (Homo sapiens, UniProt Q99705); test: Radioligand binding, human melanin-concentrating hormone MCH1 membranes, FlashPlate, [125I]-S36057; conditions: compound at 10 μM; for A6: inhibition of radioligand binding, human melanin-concentrating hormone (MCH1): [125I]-S36057; for A6: inhibition of radioligand binding: [125I]-S36057, human MCH1 membranes
T9 construct: purchased Perkin Elmer Biosignal
Method in brief: as §1

Human Melanocortin (MC3) = molecular target: T10, Human Melanocortin (MC3) (Homo sapiens, UniProt P41968); test: Radioligand binding, human melanocortin MC3 membranes, FlashPlate, [125I]-NDP-αMSH; conditions: compound at 10 μM, [125I]-NDP-αMSH; for A3: inhibition of radioligand binding: human MC3 membranes
T10 construct: purchased Perkin Elmer Biosignal
Method in brief: as §1

Human κ-Opioid (KOP) = molecular target: T11, Human κ-Opioid (KOP) (Homo sapiens, UniProt P41145); test: Radioligand binding, human κ-opioid (KOP) membranes, filtration, [3H]-Diprenorphine; conditions: compound at 10 μM, [3H]-Diprenorphine; for A2: inhibition of radioligand binding: human KOP membranes
T11 construct: purchased Perkin Elmer Biosignal
Method in brief: as §2

T8 sequence (P41146 whole entry): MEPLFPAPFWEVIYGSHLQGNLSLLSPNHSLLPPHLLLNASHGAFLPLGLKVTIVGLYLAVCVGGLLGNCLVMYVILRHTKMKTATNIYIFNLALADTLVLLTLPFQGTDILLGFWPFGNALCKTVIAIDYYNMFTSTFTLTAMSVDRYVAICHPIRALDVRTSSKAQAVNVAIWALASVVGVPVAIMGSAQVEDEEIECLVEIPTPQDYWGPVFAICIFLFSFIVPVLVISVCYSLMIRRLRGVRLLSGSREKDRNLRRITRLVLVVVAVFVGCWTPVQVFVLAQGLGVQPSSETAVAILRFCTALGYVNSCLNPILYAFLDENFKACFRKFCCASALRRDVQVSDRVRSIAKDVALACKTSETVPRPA
T9 sequence (Q99705 whole entry): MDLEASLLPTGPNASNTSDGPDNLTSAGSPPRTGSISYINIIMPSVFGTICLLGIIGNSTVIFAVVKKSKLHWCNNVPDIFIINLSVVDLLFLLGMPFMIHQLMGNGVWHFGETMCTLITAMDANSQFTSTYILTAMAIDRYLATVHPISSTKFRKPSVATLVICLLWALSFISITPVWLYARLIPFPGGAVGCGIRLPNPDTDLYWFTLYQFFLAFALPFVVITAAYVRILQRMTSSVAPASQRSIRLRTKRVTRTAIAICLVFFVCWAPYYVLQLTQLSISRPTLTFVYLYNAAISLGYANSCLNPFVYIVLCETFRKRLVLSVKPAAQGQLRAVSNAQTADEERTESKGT
T10 sequence (P41968 whole entry): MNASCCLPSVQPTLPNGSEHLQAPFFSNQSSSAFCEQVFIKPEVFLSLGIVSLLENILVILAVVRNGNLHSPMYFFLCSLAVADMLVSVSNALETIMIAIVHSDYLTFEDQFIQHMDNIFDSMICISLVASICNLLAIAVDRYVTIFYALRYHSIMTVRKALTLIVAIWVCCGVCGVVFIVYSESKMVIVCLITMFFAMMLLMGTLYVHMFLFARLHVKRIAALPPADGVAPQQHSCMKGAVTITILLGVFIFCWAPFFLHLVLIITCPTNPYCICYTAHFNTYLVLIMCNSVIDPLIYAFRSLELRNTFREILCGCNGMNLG
T3 sequence (P41143 whole entry): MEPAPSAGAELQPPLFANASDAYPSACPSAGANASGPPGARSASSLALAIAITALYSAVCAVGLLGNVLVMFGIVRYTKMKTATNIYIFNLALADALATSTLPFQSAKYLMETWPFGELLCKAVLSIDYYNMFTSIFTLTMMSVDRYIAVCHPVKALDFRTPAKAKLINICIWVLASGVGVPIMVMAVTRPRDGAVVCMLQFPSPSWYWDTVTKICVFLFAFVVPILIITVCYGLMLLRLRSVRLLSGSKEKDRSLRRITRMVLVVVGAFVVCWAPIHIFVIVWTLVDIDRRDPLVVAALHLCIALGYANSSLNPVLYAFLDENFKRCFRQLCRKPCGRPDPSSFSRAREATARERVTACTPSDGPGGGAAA
T4 sequence (P33032 whole entry): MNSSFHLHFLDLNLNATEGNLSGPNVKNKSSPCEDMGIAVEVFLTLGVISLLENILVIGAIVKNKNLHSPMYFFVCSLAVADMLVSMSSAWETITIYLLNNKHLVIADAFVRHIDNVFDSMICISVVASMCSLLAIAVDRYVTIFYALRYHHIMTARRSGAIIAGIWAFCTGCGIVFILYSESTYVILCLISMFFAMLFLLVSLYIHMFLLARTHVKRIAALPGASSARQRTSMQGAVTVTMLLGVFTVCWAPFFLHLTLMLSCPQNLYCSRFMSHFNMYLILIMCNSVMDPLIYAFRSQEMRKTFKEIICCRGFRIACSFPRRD
T5 sequence (P25103 whole entry): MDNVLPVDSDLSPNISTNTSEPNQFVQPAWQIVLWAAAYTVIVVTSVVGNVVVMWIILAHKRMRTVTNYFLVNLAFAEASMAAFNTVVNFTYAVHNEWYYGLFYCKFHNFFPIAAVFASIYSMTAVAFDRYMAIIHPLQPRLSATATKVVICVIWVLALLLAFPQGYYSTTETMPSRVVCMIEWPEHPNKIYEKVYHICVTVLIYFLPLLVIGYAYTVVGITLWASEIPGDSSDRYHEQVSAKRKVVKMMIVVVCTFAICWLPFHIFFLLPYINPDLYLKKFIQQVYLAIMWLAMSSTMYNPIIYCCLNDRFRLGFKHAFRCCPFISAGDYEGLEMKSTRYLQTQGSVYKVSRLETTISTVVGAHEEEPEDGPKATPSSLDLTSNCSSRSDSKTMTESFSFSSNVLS
T7 sequence (P32245 whole entry): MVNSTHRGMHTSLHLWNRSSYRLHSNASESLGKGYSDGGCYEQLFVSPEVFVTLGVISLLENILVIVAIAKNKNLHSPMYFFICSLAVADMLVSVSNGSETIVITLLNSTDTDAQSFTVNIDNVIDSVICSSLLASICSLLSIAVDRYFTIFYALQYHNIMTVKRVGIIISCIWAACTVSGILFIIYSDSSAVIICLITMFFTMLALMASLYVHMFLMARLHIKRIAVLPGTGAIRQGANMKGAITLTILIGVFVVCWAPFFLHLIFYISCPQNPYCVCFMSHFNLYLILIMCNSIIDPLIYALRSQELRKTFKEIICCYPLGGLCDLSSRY
T2 sequence (P35372 whole entry): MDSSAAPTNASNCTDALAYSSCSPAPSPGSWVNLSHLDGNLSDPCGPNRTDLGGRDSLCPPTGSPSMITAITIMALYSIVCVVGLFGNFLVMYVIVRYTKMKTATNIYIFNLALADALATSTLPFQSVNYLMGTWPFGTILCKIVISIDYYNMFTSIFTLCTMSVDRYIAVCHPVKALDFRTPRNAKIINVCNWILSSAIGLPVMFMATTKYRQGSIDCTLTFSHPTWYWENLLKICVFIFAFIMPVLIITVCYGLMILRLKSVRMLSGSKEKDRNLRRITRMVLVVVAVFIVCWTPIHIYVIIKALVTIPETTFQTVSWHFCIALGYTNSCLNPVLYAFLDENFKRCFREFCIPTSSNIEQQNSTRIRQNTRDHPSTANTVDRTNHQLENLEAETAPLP
T11 sequence (P41145 whole entry): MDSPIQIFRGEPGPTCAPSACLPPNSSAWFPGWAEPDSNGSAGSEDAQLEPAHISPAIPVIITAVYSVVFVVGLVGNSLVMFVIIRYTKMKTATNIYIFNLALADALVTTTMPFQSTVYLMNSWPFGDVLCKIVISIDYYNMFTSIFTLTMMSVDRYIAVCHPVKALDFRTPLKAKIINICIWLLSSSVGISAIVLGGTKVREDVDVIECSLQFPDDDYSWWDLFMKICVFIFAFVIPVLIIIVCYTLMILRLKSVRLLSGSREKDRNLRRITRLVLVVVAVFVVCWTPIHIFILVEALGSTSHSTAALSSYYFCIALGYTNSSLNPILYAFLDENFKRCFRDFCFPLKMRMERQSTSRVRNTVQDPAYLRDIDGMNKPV

SMILES | A11: inhibition of radioligand binding, mouse urotensin (mUR2) (Mouse urotensin (mUR2)) | A7: inhibition of radioligand binding, human μ-opioid (MOP) (Human μ-opioid (MOP)) | A1: inhibition of radioligand binding, human δ-opioid (DOP) (Human δ-opioid (DOP)) | A5: inhibition of radioligand binding, human melanocortin (MC5) (Human melanocortin (MC5)) | A8: inhibition of radioligand binding, human neurokinin (NK1) (Human neurokinin (NK1)) | A9: inhibition of radioligand binding, human neuropeptide Y (NPY-Y1) [1] | A4: inhibition of radioligand binding, human melanocortin (MC4) (Human Melanocortin (MC4)) | A10: inhibition of radioligand binding, human opioid (ORL1) (Human opioid (ORL1)) | A6: inhibition of radioligand binding, human melanin-concentrating hormone (MCH1) [2] | A3: inhibition of radioligand binding, human melanocortin (MC3) (Human Melanocortin (MC3)) | A2: inhibition of radioligand binding, human κ-opioid (KOP) (Human κ-Opioid (KOP)) | A11: inhibition of radioligand binding (Mouse urotensin (mUR2)) | A7: inhibition of radioligand binding (Human μ-opioid (MOP)) | A1: inhibition of radioligand binding (Human δ-opioid (DOP)) | A5: inhibition of radioligand binding (Human melanocortin (MC5)) | A8: inhibition of radioligand binding (Human neurokinin (NK1)) | A9: inhibition of radioligand binding [1] | A10: inhibition of radioligand binding (Human opioid (ORL1)) | A3: inhibition of radioligand binding (Human Melanocortin (MC3)) | A2: inhibition of radioligand binding (Human κ-Opioid (KOP)) | also measured
CSC1O[C@H](COCc2ccc(-c3ccccc3)cc2)[C@@H](O)[C@@H](OCc2ccc(-c3ccccc3)cc2)[C@H]1NC(=O)CCCN (stereo partly shown) [compound 294] | − (“−” indicates less than 50% inhibition at 10 μM) | − (“−” indicates less than 50% inhibition at 10 μM) | − (“−” indicates less than 50% inhibition at 10 μM) | + (“+” indicates greater than 50% inhibition at 10 μM) | + (“+” indicates greater than 50% inhibition at 10 μM) | − (“−” indicates less than 50% inhibition at 10 μM) | − (“−” indicates less than 50% inhibition at 10 μM) | − (“−” indicates less than 50% inhibition at 10 μM) | − (“−” indicates less than 50% inhibition at 10 μM) | − (“−” indicates less than 50% inhibition at 10 μM) | − (“−” indicates less than 50% inhibition at 10 μM) | – | – | – | – | – | – | – | – | – | –
N=C(N)NCCC(=O)N[C@H]1C(OCc2ccc(Cl)cc2)O[C@H](COCc2ccc(Cl)cc2)[C@@H](O)[C@@H]1OCc1ccc(-c2ccccc2)cc1 (stereo partly shown) [compound 537] | – | − (“−” indicates less than 50% inhibition at 10 μM) | − (“−” indicates less than 50% inhibition at 10 μM) | + (“+” indicates greater than 50% inhibition at 10 μM) | + (“+” indicates greater than 50% inhibition at 10 μM) | – | + (“+” indicates greater than 50% inhibition at 10 μM) | + (“+” indicates greater than 50% inhibition at 10 μM) | + (“+” indicates greater than 50% inhibition at 10 μM) | + (“+” indicates greater than 50% inhibition at 10 μM) | – | – | – | – | – | – | – | – | – | – | A11: inhibition of radioligand binding, mouse urotensin (mUR2) (Mouse urotensin (mUR2); 10 µM): − (“−” indicates less than 50% inhibition at 10 μM); A9: inhibition of radioligand binding, human neuropeptide Y (NPY-Y1) ([1]; 10 µM): − (“−” indicates less than 50% inhibition at 10 μM); A2: inhibition of radioligand binding, human κ-opioid (KOP) (Human κ-Opioid (KOP); 10 µM): − (“−” indicates less than 50% inhibition at 10 μM)
N=C(N)NCCC(=O)NC1C(OCc2ccc(Cl)cc2)OC(COCc2ccc3ccccc3c2)C(O)C1OCc1ccc2ccccc2c1 (stereo not shown) [compound 429] | – | – | – | – | – | – | – | – | – | – | – | − (“−” indicates less than 50% inhibition at 10 μM) | − (“−” indicates less than 50% inhibition at 10 μM) | − (“−” indicates less than 50% inhibition at 10 μM) | + (“+” indicates greater than 50% inhibition at 10 μM) | + (“+” indicates greater than 50% inhibition at 10 μM) | − (“−” indicates less than 50% inhibition at 10 μM) | − (“−” indicates less than 50% inhibition at 10 μM) | + (“+” indicates greater than 50% inhibition at 10 μM) | − (“−” indicates less than 50% inhibition at 10 μM) | A4: inhibition of radioligand binding (Human Melanocortin (MC4)): + (“+” indicates greater than 50% inhibition at 10 μM); A6: inhibition of radioligand binding [2]: + (“+” indicates greater than 50% inhibition at 10 μM)
NCCC(=O)NC1C(OCc2ccc(Cl)cc2)OC(COCc2ccc3ccccc3c2)C(O)C1OCc1ccc(Cl)cc1 (single isomer, unassigned) [compound 472] | – | – | – | – | – | – | – | – | – | – | – | − (“−” indicates less than 50% inhibition at 10 μM) | − (“−” indicates less than 50% inhibition at 10 μM) | − (“−” indicates less than 50% inhibition at 10 μM) | + (“+” indicates greater than 50% inhibition at 10 μM) | + (“+” indicates greater than 50% inhibition at 10 μM) | − (“−” indicates less than 50% inhibition at 10 μM) | − (“−” indicates less than 50% inhibition at 10 μM) | + (“+” indicates greater than 50% inhibition at 10 μM) | − (“−” indicates less than 50% inhibition at 10 μM) | A4: inhibition of radioligand binding (Human Melanocortin (MC4); 10 µM): + (“+” indicates greater than 50% inhibition at 10 μM); A6: inhibition of radioligand binding ([2]; 10 µM): + (“+” indicates greater than 50% inhibition at 10 μM)
N=C(N)NCC(=O)N[C@H]1C(OCc2ccc(Cl)cc2)O[C@H](COCc2ccc(Cl)cc2)[C@@H](O)[C@@H]1OCc1ccc2ccccc2c1 (stereo partly shown) [compound 515] | − (“−” indicates less than 50% inhibition at 10 μM) | − (“−” indicates less than 50% inhibition at 10 μM) | − (“−” indicates less than 50% inhibition at 10 μM) | + (“+” indicates greater than 50% inhibition at 10 μM) | + (“+” indicates greater than 50% inhibition at 10 μM) | − (“−” indicates less than 50% inhibition at 10 μM) | + (“+” indicates greater than 50% inhibition at 10 μM) | – | + (“+” indicates greater than 50% inhibition at 10 μM) | + (“+” indicates greater than 50% inhibition at 10 μM) | − (“−” indicates less than 50% inhibition at 10 μM) | – | – | – | – | – | – | – | – | – | A10: inhibition of radioligand binding, human opioid (ORL1) (Human opioid (ORL1); 10 µM): + (“+” indicates greater than 50% inhibition at 10 μM)

— patent US20080009418A1, “Selective Inhibitors” (Alchemia LTD., priority 2004, published 2008)
